# Reference: patent US20070259889A1, “Protein Binding Compounds” (priority 2003, published 2007)
# Target: bovine serum albumin (BSA) (Bos taurus, UniProt P02769)
# Test: Protein binding studies (albumin binding, centrifugal ultrafiltration, HPLC)
# Type: in vitro ADME
# Settings: didanosine and didanosine prodrugs; method of Example 7: 4% BSA in water, 30 minutes at 37° C., 10,000 MWCO centrifugal filter, phosphate buffer pH 7.4 reference
# Procedure: The compound (approximately 5 mg) was dissolved in DMSO (approximately 1.8 ml). A small sample of this DMSO solution (approximately 5 mg) was added to a solution of bovine serum albumin (BSA) in water (approximately 1.8 ml, 4% BSA). Another sample of the DMSO solution (approximately 5 mg) was added to a solution of phosphate buffer pH 7.4 (isotonic) (approximately 1.8 ml).
# Both samples were shaken in a water bath for 30 minutes at 37° C.
# The devices were centrifugated at 4000 rpm for 1 hour at 37° C.
# The amount of drug in the filtrates was determined by HPLC(C-18 column, phosphate buffer pH 2.2/acetonitrile, UV detection).
# Chain of bovine serum albumin (BSA) (P02769 25-607): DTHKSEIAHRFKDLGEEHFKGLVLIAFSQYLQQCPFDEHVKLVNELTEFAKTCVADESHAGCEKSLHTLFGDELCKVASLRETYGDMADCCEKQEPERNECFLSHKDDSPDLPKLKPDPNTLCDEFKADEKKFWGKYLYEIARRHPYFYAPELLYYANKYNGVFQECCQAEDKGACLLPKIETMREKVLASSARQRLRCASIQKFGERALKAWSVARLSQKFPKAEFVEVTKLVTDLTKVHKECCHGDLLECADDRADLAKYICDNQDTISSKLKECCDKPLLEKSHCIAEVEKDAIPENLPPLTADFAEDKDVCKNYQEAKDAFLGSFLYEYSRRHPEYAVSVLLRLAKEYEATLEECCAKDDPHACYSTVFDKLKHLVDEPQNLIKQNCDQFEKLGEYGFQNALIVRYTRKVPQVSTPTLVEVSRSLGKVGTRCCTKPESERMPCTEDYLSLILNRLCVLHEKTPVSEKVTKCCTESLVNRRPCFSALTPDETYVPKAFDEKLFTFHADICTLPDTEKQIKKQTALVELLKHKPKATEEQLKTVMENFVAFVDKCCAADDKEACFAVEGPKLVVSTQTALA
row,% Albumin binding,Compound
1,94%,"O=C(O)CCCCCCCCCCC(=O)OCC1CCC(n2cnc3c(=O)[nH]cnc32)O1 (stereo not shown) [2′,3′-dideoxy-5′-hydrogen dodecanedioate inosine]"
2,100%,"O=C(O)CCCCCCCCCCCCCCC(=O)OCC1CCC(n2cnc3c(=O)[nH]cnc32)O1 (stereo not shown) [2′,3′-dideoxy-5′-hydrogen hexadecanedioate inosine]"
3,10%,"O=C(O)CCCCC(=O)OCC1CCC(n2cnc3c(=O)[nH]cnc32)O1 (stereo not shown) [2′,3′-dideoxy-5′-hydrogen hexanedioate inosine]"
4,40%,"O=C(O)CCCCCCC(=O)OCC1CCC(n2cnc3c(=O)[nH]cnc32)O1 (stereo not shown) [2′,3′-dideoxy-5′-hydrogen octanedioate inosine]"
